From patent publication US12173322B2, “Genome-edited induced pluripotent stem cells, and cells derived therefrom, and uses thereof” (priority 2020, dated 2024)
Like-named read-outs stand apart in the source and are kept apart here.

Tests used:
hKCNQ1 /mink = target: T1, hKCNQ1 /mink (Homo sapiens, UniProt P51787); experiment: Patch clamp electrophysiology (QPatch), hKCNQ1/mink; assay type: cell-based
T1 construct: Eurofins

hCav1.2 = target: T2, hCav1.2 (Homo sapiens, UniProt Q13936); experiment: Patch clamp electrophysiology (QPatch CiPA), hCav1.2; assay type: cell-based
T2 construct: Eurofins
T2 sequence (Q13936 whole entry): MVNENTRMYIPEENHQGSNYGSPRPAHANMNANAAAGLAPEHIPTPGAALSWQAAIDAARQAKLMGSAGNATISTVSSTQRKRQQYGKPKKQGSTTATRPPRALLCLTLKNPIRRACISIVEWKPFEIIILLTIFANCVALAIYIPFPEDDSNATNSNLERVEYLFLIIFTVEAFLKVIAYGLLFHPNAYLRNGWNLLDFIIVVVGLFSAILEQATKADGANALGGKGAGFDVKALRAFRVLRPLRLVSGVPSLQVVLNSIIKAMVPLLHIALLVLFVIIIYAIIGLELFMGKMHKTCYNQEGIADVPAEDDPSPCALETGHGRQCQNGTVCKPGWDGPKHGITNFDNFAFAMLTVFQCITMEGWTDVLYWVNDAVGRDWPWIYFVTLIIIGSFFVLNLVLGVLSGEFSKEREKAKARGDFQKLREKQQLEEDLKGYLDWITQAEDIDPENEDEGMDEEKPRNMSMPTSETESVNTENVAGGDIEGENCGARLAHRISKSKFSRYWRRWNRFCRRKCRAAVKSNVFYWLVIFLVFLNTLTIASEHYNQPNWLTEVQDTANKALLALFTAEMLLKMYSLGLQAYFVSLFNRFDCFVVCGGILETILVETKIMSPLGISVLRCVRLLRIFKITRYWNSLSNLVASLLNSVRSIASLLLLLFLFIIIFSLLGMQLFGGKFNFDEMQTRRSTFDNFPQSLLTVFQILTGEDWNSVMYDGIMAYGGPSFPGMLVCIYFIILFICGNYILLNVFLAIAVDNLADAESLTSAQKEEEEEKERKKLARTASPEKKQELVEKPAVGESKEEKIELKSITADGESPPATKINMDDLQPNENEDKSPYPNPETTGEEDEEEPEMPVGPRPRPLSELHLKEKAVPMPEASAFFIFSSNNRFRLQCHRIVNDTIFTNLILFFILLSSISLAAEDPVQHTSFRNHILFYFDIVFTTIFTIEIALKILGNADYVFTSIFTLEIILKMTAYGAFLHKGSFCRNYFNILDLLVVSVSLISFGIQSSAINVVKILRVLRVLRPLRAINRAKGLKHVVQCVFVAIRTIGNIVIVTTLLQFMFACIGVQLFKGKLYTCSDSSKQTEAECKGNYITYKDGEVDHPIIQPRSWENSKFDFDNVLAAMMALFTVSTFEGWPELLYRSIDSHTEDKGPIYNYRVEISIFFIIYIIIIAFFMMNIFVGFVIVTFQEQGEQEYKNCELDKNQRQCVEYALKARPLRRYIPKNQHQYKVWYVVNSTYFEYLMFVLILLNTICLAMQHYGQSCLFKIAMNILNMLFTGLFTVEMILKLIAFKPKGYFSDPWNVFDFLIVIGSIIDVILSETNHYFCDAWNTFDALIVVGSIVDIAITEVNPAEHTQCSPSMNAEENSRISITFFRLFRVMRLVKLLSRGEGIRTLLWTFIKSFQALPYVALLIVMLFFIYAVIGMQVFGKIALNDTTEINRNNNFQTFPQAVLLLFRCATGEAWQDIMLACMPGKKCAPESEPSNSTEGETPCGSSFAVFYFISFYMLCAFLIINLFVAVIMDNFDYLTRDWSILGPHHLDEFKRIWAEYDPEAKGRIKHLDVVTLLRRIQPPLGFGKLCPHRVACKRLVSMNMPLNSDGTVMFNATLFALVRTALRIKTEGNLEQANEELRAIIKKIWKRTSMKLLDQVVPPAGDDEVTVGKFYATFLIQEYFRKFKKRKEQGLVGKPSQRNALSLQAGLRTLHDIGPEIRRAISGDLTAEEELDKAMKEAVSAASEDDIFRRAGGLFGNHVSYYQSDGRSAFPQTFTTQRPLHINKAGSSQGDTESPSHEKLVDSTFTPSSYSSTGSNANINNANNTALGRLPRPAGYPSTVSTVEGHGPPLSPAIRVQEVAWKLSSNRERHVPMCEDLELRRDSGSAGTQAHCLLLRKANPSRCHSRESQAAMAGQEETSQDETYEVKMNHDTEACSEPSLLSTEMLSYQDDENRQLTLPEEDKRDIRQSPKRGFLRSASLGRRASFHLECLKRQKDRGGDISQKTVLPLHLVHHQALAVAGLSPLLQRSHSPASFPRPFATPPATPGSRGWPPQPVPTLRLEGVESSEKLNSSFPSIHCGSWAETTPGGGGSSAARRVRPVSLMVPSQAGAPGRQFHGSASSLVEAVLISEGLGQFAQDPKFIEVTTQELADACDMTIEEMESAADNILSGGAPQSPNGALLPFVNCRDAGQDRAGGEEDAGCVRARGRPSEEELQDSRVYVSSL
T2 sequence (Q08289 whole entry partner): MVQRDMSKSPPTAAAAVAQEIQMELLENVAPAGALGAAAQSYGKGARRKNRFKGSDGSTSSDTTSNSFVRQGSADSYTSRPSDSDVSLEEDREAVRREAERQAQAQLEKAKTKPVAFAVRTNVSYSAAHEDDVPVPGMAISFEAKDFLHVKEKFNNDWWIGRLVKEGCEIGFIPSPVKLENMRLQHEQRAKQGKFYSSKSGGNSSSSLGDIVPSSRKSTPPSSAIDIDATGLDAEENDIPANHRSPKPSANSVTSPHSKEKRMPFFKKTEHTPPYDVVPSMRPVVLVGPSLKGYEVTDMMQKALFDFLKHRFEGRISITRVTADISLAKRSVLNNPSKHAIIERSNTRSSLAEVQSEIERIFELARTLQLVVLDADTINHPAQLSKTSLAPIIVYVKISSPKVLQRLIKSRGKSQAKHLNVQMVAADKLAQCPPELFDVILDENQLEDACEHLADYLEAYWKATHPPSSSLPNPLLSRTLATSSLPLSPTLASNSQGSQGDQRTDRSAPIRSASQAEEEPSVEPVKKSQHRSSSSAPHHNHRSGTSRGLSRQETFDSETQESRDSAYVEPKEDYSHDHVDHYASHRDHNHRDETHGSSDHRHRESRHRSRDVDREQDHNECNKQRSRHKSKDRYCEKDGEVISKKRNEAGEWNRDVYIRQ
T2 sequence (P54289 25-956 partner limits assumed): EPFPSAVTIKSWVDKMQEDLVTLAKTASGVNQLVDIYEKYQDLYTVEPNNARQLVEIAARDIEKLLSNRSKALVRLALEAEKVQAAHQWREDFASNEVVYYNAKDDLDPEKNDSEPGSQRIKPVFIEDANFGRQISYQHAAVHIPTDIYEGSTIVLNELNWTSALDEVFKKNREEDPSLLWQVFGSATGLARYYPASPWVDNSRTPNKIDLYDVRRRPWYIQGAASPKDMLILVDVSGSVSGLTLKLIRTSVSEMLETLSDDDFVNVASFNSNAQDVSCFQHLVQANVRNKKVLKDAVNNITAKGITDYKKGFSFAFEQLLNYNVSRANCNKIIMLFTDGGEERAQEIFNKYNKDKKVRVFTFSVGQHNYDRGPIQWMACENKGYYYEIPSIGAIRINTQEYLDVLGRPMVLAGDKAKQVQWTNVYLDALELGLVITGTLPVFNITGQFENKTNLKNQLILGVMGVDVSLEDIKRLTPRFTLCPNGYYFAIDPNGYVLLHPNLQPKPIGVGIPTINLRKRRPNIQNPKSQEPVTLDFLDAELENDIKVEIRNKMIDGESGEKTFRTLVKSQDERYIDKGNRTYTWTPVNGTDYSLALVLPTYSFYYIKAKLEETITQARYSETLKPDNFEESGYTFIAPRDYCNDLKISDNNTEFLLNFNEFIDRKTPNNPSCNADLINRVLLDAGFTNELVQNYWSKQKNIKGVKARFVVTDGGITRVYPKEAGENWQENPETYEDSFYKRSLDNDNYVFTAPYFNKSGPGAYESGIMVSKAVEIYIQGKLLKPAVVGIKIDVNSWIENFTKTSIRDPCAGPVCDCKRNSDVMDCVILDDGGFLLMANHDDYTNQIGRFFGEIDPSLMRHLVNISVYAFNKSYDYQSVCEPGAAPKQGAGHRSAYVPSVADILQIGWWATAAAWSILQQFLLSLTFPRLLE
T2 sequence (P54289 957-1103 partner limits assumed): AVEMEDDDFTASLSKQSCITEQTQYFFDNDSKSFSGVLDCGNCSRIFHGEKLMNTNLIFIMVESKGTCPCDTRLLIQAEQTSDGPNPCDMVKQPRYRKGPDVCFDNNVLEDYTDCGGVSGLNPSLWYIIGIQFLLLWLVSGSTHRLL

T1 sequence (P51787 whole entry): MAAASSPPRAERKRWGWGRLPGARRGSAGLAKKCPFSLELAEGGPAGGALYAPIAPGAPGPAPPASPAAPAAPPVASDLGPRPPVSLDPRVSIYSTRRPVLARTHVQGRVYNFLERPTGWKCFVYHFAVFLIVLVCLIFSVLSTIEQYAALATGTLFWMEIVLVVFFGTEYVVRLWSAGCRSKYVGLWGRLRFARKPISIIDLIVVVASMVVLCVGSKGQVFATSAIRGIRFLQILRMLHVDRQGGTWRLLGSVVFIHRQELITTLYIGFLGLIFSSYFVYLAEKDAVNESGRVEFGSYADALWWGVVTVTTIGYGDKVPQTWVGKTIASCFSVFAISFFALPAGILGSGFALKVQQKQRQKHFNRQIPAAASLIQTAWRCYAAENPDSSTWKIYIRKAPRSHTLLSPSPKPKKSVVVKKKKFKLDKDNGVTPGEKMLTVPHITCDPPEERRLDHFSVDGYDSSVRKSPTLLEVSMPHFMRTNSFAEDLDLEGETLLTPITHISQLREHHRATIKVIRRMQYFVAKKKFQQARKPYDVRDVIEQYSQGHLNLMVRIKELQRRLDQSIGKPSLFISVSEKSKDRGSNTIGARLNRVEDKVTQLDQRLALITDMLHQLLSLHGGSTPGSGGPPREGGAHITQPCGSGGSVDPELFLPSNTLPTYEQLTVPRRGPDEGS

CCS(=O)(=O)N(C)[C@H]1c2cc(C#N)ccc2OC(C)(C)[C@@H]1O (racemic) [Chromanol 293B]
% inhibition mean (hKCNQ1 /mink; 0.3 μM): 4.24% | % inhibition n1 (hKCNQ1 /mink; 0.3 μM): 1.35% | % inhibition n2 (hKCNQ1 /mink; 0.3 μM): 7.13% | % inhibition mean (hKCNQ1 /mink; 1 µM): 12.25% | % inhibition n1 (hKCNQ1 /mink; 1 µM): 9.45% | % inhibition n2 (hKCNQ1 /mink; 1 µM): 15.04% | % inhibition mean (hKCNQ1 /mink; 3 μM): 22.85% | % inhibition n1 (hKCNQ1 /mink; 3 μM): 21.34% | % inhibition n2 (hKCNQ1 /mink; 3 μM): 24.36% | % inhibition mean (hKCNQ1 /mink; 10 µM): 40.28% | % inhibition n1 (hKCNQ1 /mink; 10 µM): 39.37% | % inhibition n2 (hKCNQ1 /mink; 10 µM): 41.20% | % inhibition mean (hKCNQ1 /mink; 30 μM): 73.92% | % inhibition n1 (hKCNQ1 /mink; 30 μM): 74.46% | % inhibition n2 (hKCNQ1 /mink; 30 μM): 73.39% | % inhibition mean (hKCNQ1 /mink; 100 µM): 95.80% | % inhibition n1 (hKCNQ1 /mink; 100 µM): 96.45% | % inhibition n2 (hKCNQ1 /mink; 100 µM): 95.16% | IC50 (hKCNQ1 /mink; read-out: Estimated IC50): 11.5 µM

COC(=O)C1=C(C)NC(C)=C(C(=O)OC)C1c1ccccc1[N+](=O)[O-] [Nifedipine]
inhibition at 0.001 µM (hCav1.2; read-out: % inhibition mean): 15.1% | inhibition at 0.01 µM (hCav1.2; read-out: % inhibition mean): 34.8% | inhibition at 0.1 µM (hCav1.2; read-out: % inhibition mean): 55.7% | inhibition at 1 µM (hCav1.2; read-out: % inhibition mean): 61% | inhibition at 10 µM (hCav1.2; read-out: % inhibition mean): 83.8% | inhibition at 100 µM (hCav1.2; read-out: % inhibition mean): 94.8% | inhibition at 0.001 µM (hCav1.2; read-out: % inhibition n1): 21.6% | inhibition at 0.01 µM (hCav1.2; read-out: % inhibition n1): 38.2% | inhibition at 0.1 µM (hCav1.2; read-out: % inhibition n1): 53.1% | inhibition at 1 µM (hCav1.2; read-out: % inhibition n1): 56.8% | inhibition at 10 µM (hCav1.2; read-out: % inhibition n1): 81.4% | inhibition at 100 µM (hCav1.2; read-out: % inhibition n1): 95.2% | inhibition at 0.001 µM (hCav1.2; read-out: % inhibition n2): 8.54% | inhibition at 0.01 µM (hCav1.2; read-out: % inhibition n2): 31.5% | inhibition at 0.1 µM (hCav1.2; read-out: % inhibition n2): 58.2% | inhibition at 1 µM (hCav1.2; read-out: % inhibition n2): 65.2% | inhibition at 10 µM (hCav1.2; read-out: % inhibition n2): 86.1% | inhibition at 100 µM (hCav1.2; read-out: % inhibition n2): 94.5%
